Results on two compounds are retold here after patent publication US20150157023A1, “S[…] CONTROL FROM COMBINATIONS OF 2,4-D-CHOLINE AND GLUFOSINATE” (Dow AgroSciences LLC, priority 2013, published 2015).

The data set deals with AAD12 Soybean (GLXMA). The experiment in a line: Field crop tolerance trials (% visual injury, chlorosis, growth inhibition). How it is done:
These trials were conducted under field conditions in multiple states in the United States, including but not limited to Arkansas, Illinois, Indiana, Minnesota, Mississippi, Nebraska, Ohio, Oklahoma, Texas, South Carolina and South Dakota. […] Treatments were applied with small plot backpack sprayers, using pressurized air or carbon dioxide (CO2) as propellant. Pressure varied from 22-50 pounds per square inch (psi), with spray tips typically of a Flat Fan type applying water diluent at 15 gallons per acre (GPA). Boom sizes varied from 6.3-10 ft in width. Treatments were applied to soybean, cotton, corn or fallow crop land. Weed sizes varied, but all treatments were applied as post-emergence treatments to weeds from 2 leaf to 2 tiller growth stages varying from 2 to 15 inches in height. The weed spectrum included, but was not limited to, Amaranthus palmeri S. Wats. (Palmer amaranth, AMAPA), Conyza canadensis (L.) Cronq. (horseweed, ERICA), Salsola tragus L. (Russian thistle, SASKR) and Sesbania exaltata (hemp sesbania, SEBEX).
2,4-D- and glufosinate-tolerant soybeans, corn and cotton and optionally a glyphosate trait in a breeding (CP4 EPSPS) or a molecular stack (2mEPSPS) were used in all tolerance trials.
The 2,4-D-choline salt formulation was a 456 g ae/L SL. […] All treatments were mixed in water at appropriate formulated product rates to achieve the desired rates as shown based on a unit area of application (hectare). Treatments were rated at 2 to 28 days after application (DAA) as compared to the untreated control plants. The trial sites had naturally occurring populations of weeds. The treated plots and control plots were rated blind at various intervals after application. […]

Counter-ions that a name gives are not always drawn.

`O=C(O)COc1ccc(Cl)cc1Cl` [2,4-D-Choline salt, 2-hydroxy-N,N,N-trimethylethanaminium 2-(2,4-dichlorophenoxy)acetate]: the “Mean % crop growth inhibition” value is recorded as 1% (7DAA, 2130 g ae/ha); 0% (14DAA, 2130 g ae/ha); 0% (15DAA, 2130 g ae/ha).
With `CP(=O)(O)CCC(N)C(=O)O` (centres unmarked) [Glufosinate-ammonium, ammonium (3-amino-3-carboxypropyl)(methyl)phosphinate], the “Mean % crop growth inhibition” value runs as follows: (7DAA, 1084 g ae/ha) 14.0%; (15DAA, 1084 g ae/ha) 9.8%.
